Source: patent US12590953B2, “Methods for screening cereblon modifying compounds” (CELGENE CORPORATION, priority 2018, dated 2026)
Peptide text beside a SMILES is read from it. * marks the point of attachment. Cbz = O=C(OCc1ccccc1)*

Columns and labels:
SALL4 = target: T1, SALL4 (Homo sapiens, UniProt Q96SW2+Q9UJQ4); test: SALL4 protein level in human iPS cells, immunoblot; format: cell-based; conditions: human iPS cells; 1 μM MLN4924 or 10 μM MG132 for 6 hours with thalidomide
T1 construct: host or cells: human iPS cells (CRBN wild-type and CRBN knock-out)
Method: Immunoblot analysis of whole cell lysates of CRBN wild-type (WT) and CRBN knock-out (−/−) human iPS cells was performed. Cells were treated with DMSO vehicle control (−) or thalidomide (Thal) at indicated concentrations for 16 hours (n=4, biological replicates).
Immunoblot analysis of whole cell lysates of human iPS cells treated with DMSO (−) or Thal (+) in the presence or absence of 1 μM MLN4924 or 10 μM MG132 for 6 hours were performed (n=2, biological replicates).
Human iPS cell lines ACS-1019 and ACS-1011 (derived from healthy donors) were obtained from ATCC. The hiPSCs were maintained in mTESR-1 medium (Stem Cell Technologies) in cell culture plates coated with a thin layer of Matrigel (BD Biosciences) incubated at 37° C. in a humidified 5% CO2 incubator according to the manufacturer's instruction. Cells were split through mechanic passaging with a glass pipet and enzymatically digestion with Dispase or Accutase every 2 to 3 days.
Human iPSCs, ACS-1019 was transduced with lentiviral vectors expressing CRISPR-Cas9 and small guide RNA targeting cereblon for 4 days. The resulting colonies were amplified and screened for cereblon knockout by immunoblot analysis with anti-CRBN65 antibody (Celgene).

ZFP91 = target: T2, ZFP91 (Homo sapiens, UniProt Q96JP5+Q96SW2); test: Degradation of ZFP91 in Lenti-x 293 cells (control substrate); format: cell-based; conditions: Lenti-x 293 cell lines expressing cereblon
T2 construct: endogenous in cells; host or cells: Lenti-x 293 cell line with CRISPR-cas9 cereblon knock-out, transfected with GST-cereblon

[1] = system: SALL4 binding to cereblon; format: cell-based, human
Method: Binding of full length SALL4 to cereblon in cells was then tested by co-immunoprecipitation (see FIG. 3). HA-tagged WT, G416A, or G600A SALL4 was immunoprecipitated from cells, and the level of co-purifying cereblon was assessed by western blot. Briefly, a Lenti-x 293 cell line with a CRISPR-cas9 knock-out of cereblon and stable expression of HA-tagged SALL4 or SALL4 mutants was transfected with either GST-cereblon or empty vector. […] The amount of co-purifying GST-cereblon was then assessed by western blot.

[2] = target: T3, endogenous SALL4 in NCCIT, NETRA-2 c1.D1 and AN3-CA cancer cell lines (Homo sapiens, UniProt Q96SW2+Q9UJQ4); test: Degradation of endogenous SALL4 in cancer cell lines, western blot; format: cell-based; conditions: 16 hour treatment; anti-SALL4 western blot
T3 construct: endogenous in cells; host or cells: NCCIT, NETRA-2 c1.D1 and AN3-CA cancer cell lines

T1 sequence (Q9UJQ4 whole entry): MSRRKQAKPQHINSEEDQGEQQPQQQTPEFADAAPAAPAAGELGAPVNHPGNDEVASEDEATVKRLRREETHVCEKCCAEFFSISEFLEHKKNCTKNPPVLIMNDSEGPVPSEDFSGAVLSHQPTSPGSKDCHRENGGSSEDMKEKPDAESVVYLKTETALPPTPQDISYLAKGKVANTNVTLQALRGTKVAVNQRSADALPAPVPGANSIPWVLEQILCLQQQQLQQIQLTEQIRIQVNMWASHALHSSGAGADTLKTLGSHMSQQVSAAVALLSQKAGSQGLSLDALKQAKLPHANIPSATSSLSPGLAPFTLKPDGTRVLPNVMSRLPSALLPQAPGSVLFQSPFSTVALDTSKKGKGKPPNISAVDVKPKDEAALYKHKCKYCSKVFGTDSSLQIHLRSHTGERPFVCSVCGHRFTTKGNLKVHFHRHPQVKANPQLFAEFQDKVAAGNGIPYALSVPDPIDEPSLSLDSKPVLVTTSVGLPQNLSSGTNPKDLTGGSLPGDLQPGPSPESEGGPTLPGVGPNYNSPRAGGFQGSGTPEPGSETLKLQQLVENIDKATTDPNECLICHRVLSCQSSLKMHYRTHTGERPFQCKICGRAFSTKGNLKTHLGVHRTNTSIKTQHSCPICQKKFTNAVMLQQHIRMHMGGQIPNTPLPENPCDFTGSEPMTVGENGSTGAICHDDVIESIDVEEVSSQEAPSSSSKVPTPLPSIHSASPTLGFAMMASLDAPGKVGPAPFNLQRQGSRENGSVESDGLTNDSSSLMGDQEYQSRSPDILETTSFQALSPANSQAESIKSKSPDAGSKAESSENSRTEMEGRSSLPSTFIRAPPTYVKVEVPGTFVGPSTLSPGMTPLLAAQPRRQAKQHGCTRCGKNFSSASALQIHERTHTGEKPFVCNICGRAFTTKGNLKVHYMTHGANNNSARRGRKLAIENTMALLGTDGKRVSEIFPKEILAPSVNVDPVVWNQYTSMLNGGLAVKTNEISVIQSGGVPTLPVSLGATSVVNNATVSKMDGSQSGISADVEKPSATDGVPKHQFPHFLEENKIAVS
T1 sequence (Q96SW2 whole entry): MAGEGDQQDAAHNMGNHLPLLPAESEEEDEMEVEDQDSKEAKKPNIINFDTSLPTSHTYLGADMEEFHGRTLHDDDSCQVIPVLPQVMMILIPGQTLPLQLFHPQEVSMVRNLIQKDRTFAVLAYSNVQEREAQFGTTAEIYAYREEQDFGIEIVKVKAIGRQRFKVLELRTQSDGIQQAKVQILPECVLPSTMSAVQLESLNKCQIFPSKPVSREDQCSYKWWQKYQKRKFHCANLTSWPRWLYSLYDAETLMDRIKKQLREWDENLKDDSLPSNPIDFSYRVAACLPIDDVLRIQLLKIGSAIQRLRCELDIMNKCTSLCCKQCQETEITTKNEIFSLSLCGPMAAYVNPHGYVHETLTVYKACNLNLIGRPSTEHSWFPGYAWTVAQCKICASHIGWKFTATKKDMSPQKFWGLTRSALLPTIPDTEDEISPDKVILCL
T1 sequence (Q16531 whole entry partner): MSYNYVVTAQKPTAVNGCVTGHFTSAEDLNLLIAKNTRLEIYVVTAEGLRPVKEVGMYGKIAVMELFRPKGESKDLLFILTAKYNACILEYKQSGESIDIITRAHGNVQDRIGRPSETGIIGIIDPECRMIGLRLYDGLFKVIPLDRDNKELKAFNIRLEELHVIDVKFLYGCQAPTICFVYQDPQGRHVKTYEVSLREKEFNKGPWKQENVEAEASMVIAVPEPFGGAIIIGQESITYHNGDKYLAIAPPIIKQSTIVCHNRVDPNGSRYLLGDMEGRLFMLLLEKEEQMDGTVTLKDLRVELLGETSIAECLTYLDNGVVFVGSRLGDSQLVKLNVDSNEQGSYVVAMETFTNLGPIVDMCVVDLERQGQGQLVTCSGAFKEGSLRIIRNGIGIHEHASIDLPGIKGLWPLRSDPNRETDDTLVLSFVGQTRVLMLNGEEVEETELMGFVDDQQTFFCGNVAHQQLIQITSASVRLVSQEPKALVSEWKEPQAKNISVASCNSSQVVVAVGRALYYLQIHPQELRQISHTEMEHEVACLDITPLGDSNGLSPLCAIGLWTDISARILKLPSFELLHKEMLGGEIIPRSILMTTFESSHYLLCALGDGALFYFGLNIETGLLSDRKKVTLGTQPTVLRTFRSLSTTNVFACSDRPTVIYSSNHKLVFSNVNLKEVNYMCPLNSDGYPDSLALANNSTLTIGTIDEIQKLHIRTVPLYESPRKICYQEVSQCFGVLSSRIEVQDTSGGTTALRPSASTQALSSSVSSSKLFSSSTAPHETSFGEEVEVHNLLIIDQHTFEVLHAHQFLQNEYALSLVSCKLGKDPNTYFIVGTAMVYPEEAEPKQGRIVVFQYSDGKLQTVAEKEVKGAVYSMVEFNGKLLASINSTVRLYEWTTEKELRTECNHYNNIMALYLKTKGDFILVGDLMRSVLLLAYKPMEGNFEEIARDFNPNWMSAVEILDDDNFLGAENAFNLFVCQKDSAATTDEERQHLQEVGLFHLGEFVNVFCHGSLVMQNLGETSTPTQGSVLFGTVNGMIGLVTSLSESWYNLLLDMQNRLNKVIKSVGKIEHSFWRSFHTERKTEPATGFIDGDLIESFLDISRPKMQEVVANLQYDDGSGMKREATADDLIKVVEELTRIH
T2 sequence (Q96JP5 2-570 limits assumed): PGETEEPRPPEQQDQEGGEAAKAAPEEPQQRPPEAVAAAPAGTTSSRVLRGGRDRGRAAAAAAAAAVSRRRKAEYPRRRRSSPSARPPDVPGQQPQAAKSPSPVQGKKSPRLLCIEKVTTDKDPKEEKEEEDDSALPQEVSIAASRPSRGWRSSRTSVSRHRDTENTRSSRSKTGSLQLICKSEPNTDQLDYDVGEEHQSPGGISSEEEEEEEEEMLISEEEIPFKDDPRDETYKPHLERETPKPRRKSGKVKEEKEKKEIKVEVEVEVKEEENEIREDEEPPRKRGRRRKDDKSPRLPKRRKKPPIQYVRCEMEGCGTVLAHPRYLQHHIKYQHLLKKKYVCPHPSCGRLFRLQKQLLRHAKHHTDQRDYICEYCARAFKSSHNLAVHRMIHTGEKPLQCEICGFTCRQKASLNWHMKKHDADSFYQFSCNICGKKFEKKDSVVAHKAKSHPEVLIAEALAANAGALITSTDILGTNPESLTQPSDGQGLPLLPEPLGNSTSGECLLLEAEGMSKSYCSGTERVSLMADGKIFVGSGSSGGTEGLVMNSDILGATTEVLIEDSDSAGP
T2 sequence (Q96SW2 whole entry): as the sequence (Q96SW2 whole entry) above
T2 sequence (Q16531 whole entry partner): as the sequence (Q16531 whole entry partner) above

| Binding of G416A SALL4 to cereblon ([1]; HA-tagged G416A SALL4, anti-HA pull-down) | Compound | Effect on thalidomide-induced reduction in SALL4 protein levels (SALL4) | ZFP91 degradation (ZFP91) | Binding of G600A SALL4 to cereblon ([1]; HA-tagged G600A SALL4, anti-HA pull-down) | Binding of WT SALL4 to cereblon (co-purifying GST-cereblon, western blot) ([1]; HA-tagged WT SALL4, anti-HA pull-down) | Degradation of endogenous SALL4 [2] |
| --- | --- | --- | --- | --- | --- | --- |
| – | NS(=O)(=O)OC[C@@H]1C[C@@H](n2ccc3c(N[C@H]4CCc5ccccc54)ncnc32)C[C@@H]1O [MLN4924] | prevented | – | – | – | – |
| disrupted the binding significantly | Nc1cccc2c1C(=O)N(C1CCC(=O)NC1=O)C2=O (stereo not shown) [pomalidomide] | – | exhibited compound-dependent degradation in all cell lines expressing cereblon | strong, compound-dependent binding to cereblon | strong, compound-dependent binding to cereblon | Significant compound-dependent degradation of endogenous SALL4 was observed |
| – | CC(C)C[C@@H](C=O)NC(=O)[C@H](CC(C)C)NC(=O)[C@H](CC(C)C)NC(=O)OCc1ccccc1 [MG132] (Cbz-Leu-Leu-Leu-aldehyde) | prevented | – | – | – | – |
